Test systems include Escherichia coli N10; Escherichia coli EC14; Escherichia coli TEM.
Conditions in all cases: agar dilution
Background: In agar dilution, organisms are placed on agar that contains the substance at set levels.

Assay [1] deals with Staphylococcus aureus NRRL B313.
The subject of assay [2] is Staphylococcus aureus V41.
The subject of assay [3] is Staphylococcus aureus X400.
Assay [4] deals with Staphylococcus aureus S13E.
Assay [5] has as its system Staphylococcus epidermidis EPI1.
In assay [6] the test system is Staphylococcus epidermidis 222.
In assay [7] the test system is Streptococcus pyogenes C203.
Assay [8] has as its system Streptococcus pneumoniae Park 1.
Assay [9] concerns Streptococcus faecium ATCC 9790.
Assay [10] deals with Streptococcus sp. group D 2041.
The subject of assay [11] is Haemophilus influenzae C.L.
For assay [12], the system named is Haemophilus influenzae 76.
The test system of assay [13] is Klebsiella pneumoniae X26.
The subject of assay [14] is Klebsiella pneumoniae X68.
Assay [15] concerns Klebsiella pneumoniae KAE.

In brackets after ≈: the same amount, converted by molar mass.

As for `CCCCCCCCCCCC(=O)N(C)C(CC(C)C)C(=O)NC1C(=O)NC(CC(N)=O)C(=O)NC2C(=O)NC3C(=O)NC(C(=O)NC(C(=O)O)c4cc(O)cc(O)c4-c4cc3ccc4O)C(O)c3ccc(c(Cl)c3)Oc3cc2cc(c3OC2OC(CO)C(O)C(O)C2OC2CC(C)(N)C(O)C(C)O2)Oc2ccc(cc2Cl)C1O` (stereo not drawn) [Compound 13, N^leu --(1-oxo-n-dodecyl)vancomycin], the MIC in assay [1] was 8 µg/mL (≈ 4.9 µM); in assay [2], 8 µg/mL (≈ 4.9 µM); in assay [3] it was 8 µg/mL (≈ 4.9 µM); in assay [4] it was 8 µg/mL (≈ 4.9 µM); in [5] it was 32 µg/mL (≈ 19.6 µM); in [6], 8 µg/mL (≈ 4.9 µM). The MIC in assay [7] amounted to 8 µg/mL (≈ 4.9 µM); in assay [8] it was 8 µg/mL (≈ 4.9 µM); in assay [9], 8 µg/mL (≈ 4.9 µM); in assay [10], 8 µg/mL (≈ 4.9 µM); in assay [11] it was 128 µg/mL (≈ 78.5 µM); in [12] it was 32 µg/mL (≈ 19.6 µM). Also, the MIC entry (with Escherichia coli N10; with Escherichia coli EC14; in the assay with Escherichia coli TEM; in [13]; in assay [14]; in [15]) was “-- (not active at 128 mcg/ml)” each time.
Consider `CCCCCCCC(=O)NC1(C)CC(OC2C(Oc3c4cc5cc3Oc3ccc(cc3Cl)C(O)C(NC(=O)C(CC(C)C)N(C)C(=O)CCCCCCC)C(=O)NC(CC(N)=O)C(=O)NC5C(=O)NC3C(=O)NC(C(=O)NC(C(=O)O)c5cc(O)cc(O)c5-c5cc3ccc5O)C(O)c3ccc(c(Cl)c3)O4)OC(CO)C(O)C2O)OC(C)C1O` (stereo not drawn) [Compound 5, N^van,N^leu --di(1-oxo-n-octyl)vancomycin], for which the MIC was 32 µg/mL (≈ 18.8 µM) in [1]; 32 µg/mL (≈ 18.8 µM) in assay [2]; 32 µg/mL (≈ 18.8 µM) in [3]; 32 µg/mL (≈ 18.8 µM) in assay [4]; “-- (not active at 128 mcg/ml)” in [5]; 64 µg/mL (≈ 37.6 µM) in assay [6]. Further, the MIC in assay [7] was 32 µg/mL (≈ 18.8 µM); in [8], 32 µg/mL (≈ 18.8 µM); in [9] it was 32 µg/mL (≈ 18.8 µM); in assay [10], 32 µg/mL (≈ 18.8 µM); in assay [11] it was “-- (not active at 128 mcg/ml)”; in assay [12], “-- (not active at 128 mcg/ml)”. Besides, the MIC entry (in the assay on Escherichia coli N10; against Escherichia coli EC14; against Escherichia coli TEM; in assay [13]; in [14]; in [15]) was “-- (not active at 128 mcg/ml)” in each case.
Take `CCCCCCCCCC(=O)NC1(C)CC(OC2C(Oc3c4cc5cc3Oc3ccc(cc3Cl)C(O)C(NC(=O)C(CC(C)C)N(C)C(=O)CCCCCCCCC)C(=O)NC(CC(N)=O)C(=O)NC5C(=O)NC3C(=O)NC(C(=O)NC(C(=O)O)c5cc(O)cc(O)c5-c5cc3ccc5O)C(O)c3ccc(c(Cl)c3)O4)OC(CO)C(O)C2O)OC(C)C1O` (stereo not drawn) [Compound 8, N^van,N^leu-di(1-oxo-n-decyl)vancomycin]: the MIC in assay [1] was 2 µg/mL (≈ 1.14 µM); in assay [2] it was 4 µg/mL (≈ 2.28 µM); in assay [3], 4 µg/mL (≈ 2.28 µM); in assay [4] it was 8 µg/mL (≈ 4.55 µM); in assay [5] it was 32 µg/mL (≈ 18.2 µM); in assay [6], 8 µg/mL (≈ 4.55 µM). For the same compound, the MIC in assay [7] is 4 µg/mL (≈ 2.28 µM); in assay [8] it was 16 µg/mL (≈ 9.1 µM); in [9], 8 µg/mL (≈ 4.55 µM); in assay [10], 8 µg/mL (≈ 4.55 µM); in assay [11], “-- (not active at 128 mcg/ml)”; in [12], “-- (not active at 128 mcg/ml)”. Also, the MIC result (against Escherichia coli N10; against Escherichia coli EC14; against Escherichia coli TEM; in assay [13]; in assay [14]; in assay [15]) was “-- (not active at 128 mcg/ml)” throughout.
`CNC(CC(C)C)C(=O)NC1C(=O)NC(CC(N)=O)C(=O)NC2C(=O)NC3C(=O)NC(C(=O)NC(C(=O)O)c4cc(O)cc(O)c4-c4cc3ccc4O)C(O)c3ccc(c(Cl)c3)Oc3cc2cc(c3OC2OC(CO)C(O)C(O)C2OC2CC(C)(NC(=O)CCCCCBr)C(O)C(C)O2)Oc2ccc(cc2Cl)C1O` (stereo not drawn) [Compound 35, N^van --(6-bromo-n-hexyl)vancomycin]: the MIC in assay [1] was 2 µg/mL (≈ 1.23 µM); in [2], 2 µg/mL (≈ 1.23 µM); in assay [3] it was 4 µg/mL (≈ 2.46 µM); in assay [4], 2 µg/mL (≈ 1.23 µM); in assay [5], 8 µg/mL (≈ 4.92 µM); in [6], 4 µg/mL (≈ 2.46 µM). Moreover, the MIC in assay [7] is 2 µg/mL (≈ 1.23 µM); in assay [8], 1 µg/mL (≈ 0.615 µM); in assay [9], 2 µg/mL (≈ 1.23 µM); in [10], 8 µg/mL (≈ 4.92 µM); in assay [11], “-- (not active at 128 mcg/ml)”; in assay [12], “-- (not active at 128 mcg/ml)”. For the same compound, the MIC entry (against Escherichia coli N10; against Escherichia coli EC14; with Escherichia coli TEM; in [13]; in assay [14]; in assay [15]) was “-- (not active at 128 mcg/ml)” in each case.
`CCCCCCCC(=O)N(C)C(CC(C)C)C(=O)NC1C(=O)NC(CC(N)=O)C(=O)NC2C(=O)NC3C(=O)NC(C(=O)NC(C(=O)O)c4cc(O)cc(O)c4-c4cc3ccc4O)C(O)c3ccc(c(Cl)c3)Oc3cc2cc(c3OC2OC(CO)C(O)C(O)C2OC2CC(C)(N)C(O)C(C)O2)Oc2ccc(cc2Cl)C1O` (stereo not drawn) [Compound 4, N^leu --(1-oxo-n-octyl)vancomycin]: the MIC in [1] is 8 µg/mL (≈ 5.08 µM); in assay [2], 8 µg/mL (≈ 5.08 µM); in assay [3], 8 µg/mL (≈ 5.08 µM); in assay [4], 8 µg/mL (≈ 5.08 µM); in assay [5], 32 µg/mL (≈ 20.3 µM); in [6], 16 µg/mL (≈ 10.2 µM). For the same compound, the MIC is 4 µg/mL (≈ 2.54 µM) in [7]; 2 µg/mL (≈ 1.27 µM) in [8]; 8 µg/mL (≈ 5.08 µM) in [9]; 16 µg/mL (≈ 10.2 µM) in assay [10]; “-- (not active at 128 mcg/ml)” in assay [11]; “-- (not active at 128 mcg/ml)” in assay [12]. For the same compound, the MIC entry (against Escherichia coli N10; with Escherichia coli EC14; in the assay with Escherichia coli TEM; in assay [13]; in assay [14]; in assay [15]) was “-- (not active at 128 mcg/ml)” each time.
As for `CNC(CC(C)C)C(=O)NC1C(=O)NC(CC(N)=O)C(=O)NC2C(=O)NC3C(=O)NC(C(=O)NC(C(=O)O)c4cc(O)cc(O)c4-c4cc3ccc4O)C(O)c3ccc(c(Cl)c3)Oc3cc2cc(c3OC2OC(CO)C(O)C(O)C2OC2CC(C)(NC(=O)CCC(C)=O)C(O)C(C)O2)Oc2ccc(cc2Cl)C1O` (stereo not drawn) [Compound 36, N^van --(3-acetyl-1-oxo-n-propyl)vancomycin], the MIC in [1] is 2 µg/mL (≈ 1.29 µM); in assay [2], 2 µg/mL (≈ 1.29 µM); in assay [3], 2 µg/mL (≈ 1.29 µM); in [4] it was 4 µg/mL (≈ 2.59 µM); in assay [5] it was 16 µg/mL (≈ 10.3 µM); in [6], 4 µg/mL (≈ 2.59 µM). The MIC was 1 µg/mL (≈ 0.646 µM) in [7]; 1 µg/mL (≈ 0.646 µM) in [8]; 4 µg/mL (≈ 2.59 µM) in assay [9]; 8 µg/mL (≈ 5.17 µM) in [10]; “-- (not active at 128 mcg/ml)” in [11]; “-- (not active at 128 mcg/ml)” in [12]. Further, the MIC entry (against Escherichia coli N10; against Escherichia coli EC14; in the assay on Escherichia coli TEM; in assay [13]; in assay [14]; in assay [15]) was “-- (not active at 128 mcg/ml)” throughout.

The record behind these values is patent US4639433A, “Glycopeptide derivatives” (Eli Lilly and Company, priority 1985, dated 1987).
